pIC50, pKd: −log10 of the molar value. One block for each molecule: values may come before it.
Key:
[1] = target: T1, Aquaporin-4 (Homo sapiens, UniProt P55087); assay: Inhibition of AQP4-M23 (unknown origin)
[2] = target: T2, Aquaporin-1 (Homo sapiens) (UniProt P29972); assay: Inhibition of AQP1 (unknown origin) at 20 uM relative to control
T2 sequence (whole entry): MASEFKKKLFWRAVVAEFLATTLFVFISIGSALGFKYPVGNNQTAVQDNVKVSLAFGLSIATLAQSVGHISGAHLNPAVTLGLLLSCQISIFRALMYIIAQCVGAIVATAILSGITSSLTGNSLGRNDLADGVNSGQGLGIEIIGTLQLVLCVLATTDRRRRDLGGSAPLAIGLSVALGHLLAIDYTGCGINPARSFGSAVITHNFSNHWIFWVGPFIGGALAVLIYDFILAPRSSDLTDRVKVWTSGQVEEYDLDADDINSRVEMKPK

[3] = target: T1, Aquaporin-4; assay: Inhibition of AQP4-M23 (unknown origin) relative to control; conditions: concentration not given here
[4] = target: T3, Aquaporin-1 (Homo sapiens, UniProt P29972); assay: Binding affinity to AQP1 (unknown origin) expressed in HEK cells assessed as dissociation constant; assay type: cell-based
T3 sequence (P29972 whole entry): T2 sequence (whole entry)

[5] = Permeability of compound; assay type: ADME; conditions: not told; read-out: permeability
[6] = target: T4, Aquaporin-9 (Homo sapiens) (UniProt O43315); assay: Inhibition of AQP9 (unknown origin) expressed in xenopus laevis oocytes at 100 uM relative to control; assay type: cell-based; conditions: Oocyte
T4 sequence (whole entry): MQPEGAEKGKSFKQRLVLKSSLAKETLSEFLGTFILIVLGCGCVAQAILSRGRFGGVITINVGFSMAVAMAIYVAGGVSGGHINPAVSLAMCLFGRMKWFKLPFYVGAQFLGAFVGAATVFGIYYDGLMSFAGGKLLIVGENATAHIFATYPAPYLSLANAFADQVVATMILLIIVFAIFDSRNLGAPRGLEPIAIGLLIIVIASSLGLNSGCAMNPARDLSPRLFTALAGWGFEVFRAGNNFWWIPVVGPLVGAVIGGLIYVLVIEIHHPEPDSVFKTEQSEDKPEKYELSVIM

[7] = target: T5, Aquaporin-3 (Homo sapiens, UniProt Q92482); assay: Inhibition of human AQP3 expressed in CHO cells; assay type: cell-based
T5 sequence (Q92482 whole entry): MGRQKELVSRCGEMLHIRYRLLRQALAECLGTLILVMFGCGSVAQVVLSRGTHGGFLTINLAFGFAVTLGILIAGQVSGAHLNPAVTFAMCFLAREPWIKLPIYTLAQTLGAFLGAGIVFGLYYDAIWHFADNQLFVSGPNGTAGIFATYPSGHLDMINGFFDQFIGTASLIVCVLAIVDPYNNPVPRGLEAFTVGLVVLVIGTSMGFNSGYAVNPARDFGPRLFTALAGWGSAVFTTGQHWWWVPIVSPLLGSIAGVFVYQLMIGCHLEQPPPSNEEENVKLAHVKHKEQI

[8] = target: T5, Aquaporin-3; assay: Inhibition of AQP3 channel in human erythrocyte assessed as inhibition of glycerol permeability; assay type: cell-based
[9] = target: T5, Aquaporin-3; assay: Inhibition of AQP3 (unknown origin)
[10] = target: T6, Aquaporin-3 (Mus musculus, UniProt Q8R2N1); assay: Inhibition of mouse AQP3
T6 sequence (Q8R2N1 whole entry): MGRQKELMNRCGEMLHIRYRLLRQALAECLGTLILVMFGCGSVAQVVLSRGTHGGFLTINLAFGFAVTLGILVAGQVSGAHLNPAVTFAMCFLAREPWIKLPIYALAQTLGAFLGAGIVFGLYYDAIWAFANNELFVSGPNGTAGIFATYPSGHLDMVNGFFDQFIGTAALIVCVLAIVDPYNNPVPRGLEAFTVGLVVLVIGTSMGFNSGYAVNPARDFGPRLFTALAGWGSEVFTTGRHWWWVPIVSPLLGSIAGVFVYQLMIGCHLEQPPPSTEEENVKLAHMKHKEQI

[11] = target: T7, Aquaporin-9 (Mus musculus, UniProt Q9JJJ3); assay: Inhibition of mouse AQP9
T7 sequence (Q9JJJ3 whole entry): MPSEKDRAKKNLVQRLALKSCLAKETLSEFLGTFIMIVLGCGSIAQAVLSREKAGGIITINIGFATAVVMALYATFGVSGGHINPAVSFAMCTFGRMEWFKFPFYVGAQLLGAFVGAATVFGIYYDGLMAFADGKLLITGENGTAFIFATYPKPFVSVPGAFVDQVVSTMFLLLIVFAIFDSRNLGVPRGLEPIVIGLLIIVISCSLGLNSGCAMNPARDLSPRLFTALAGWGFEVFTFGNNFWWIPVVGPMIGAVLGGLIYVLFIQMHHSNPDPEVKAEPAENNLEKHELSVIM

T1 sequence (P55087 whole entry): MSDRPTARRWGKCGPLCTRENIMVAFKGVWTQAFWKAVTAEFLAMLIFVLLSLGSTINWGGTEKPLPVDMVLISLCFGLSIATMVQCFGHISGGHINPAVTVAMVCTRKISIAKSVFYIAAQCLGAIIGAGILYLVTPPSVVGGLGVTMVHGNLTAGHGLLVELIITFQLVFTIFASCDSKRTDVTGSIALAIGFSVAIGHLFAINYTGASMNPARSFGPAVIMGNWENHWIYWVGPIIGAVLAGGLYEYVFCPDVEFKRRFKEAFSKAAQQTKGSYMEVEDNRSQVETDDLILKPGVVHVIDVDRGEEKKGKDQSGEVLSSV

SMILES: O=C(Nc1nncs1)c1cccnc1
- pIC50 [1]: 5.52
- inhibition [2]: 56%
- inhibition [3]: 73%

SMILES: CC(=O)Nc1nnc(S(N)(=O)=O)s1 [ACETAZOLAMIDE]
- pKd [4]: 3.76

SMILES: Cc1ccc(CC2(OCCN(C)C)CCC(C(C)(C)C)CC2)cc1 (stereo not drawn)
- pIC50 [9]: 4.57

Now from value to molecule:

- Papp [5]: ~2.8 ×10⁻⁶ cm/s
- inhibition [6]: 86%
SMILES: O=C(CCc1ccc(O)cc1)c1c(O)cc(O)cc1O [PHLORETIN]

- pIC50 [7]: ~7.00
- pIC50 [8]: ~6.70
SMILES: O=C(Nc1csc([N+](=O)[O-])c1)Nc1c(Cl)cccc1Cl

- pIC50 [7]: 6.70
- pIC50 [8]: ~6.22
- pIC50 [10]: 6.15
- pIC50 [11]: 5.96
SMILES: CCOC(=O)c1ccc(NC(=O)NCc2ccc(-n3cccn3)cc2)cc1

— ChEMBL document CHEMBL6182835, “Distinctive roles of aquaporins and novel therapeutic opportunities against cancer” (RSC Med Chem, 2025)
